Experimental findings from patent publication US20230365556A1, “N-ACYL AMINO ACID COMPOUNDS AND METHODS OF USE” (Pliant Therapeutics, Inc., priority 2016, published 2023) are described below.

Where a name gives a salt, the structure may show the parent alone.

αvβ1 integrin (αvβ1 expressing CHO cells), sequence (P06756 31-889): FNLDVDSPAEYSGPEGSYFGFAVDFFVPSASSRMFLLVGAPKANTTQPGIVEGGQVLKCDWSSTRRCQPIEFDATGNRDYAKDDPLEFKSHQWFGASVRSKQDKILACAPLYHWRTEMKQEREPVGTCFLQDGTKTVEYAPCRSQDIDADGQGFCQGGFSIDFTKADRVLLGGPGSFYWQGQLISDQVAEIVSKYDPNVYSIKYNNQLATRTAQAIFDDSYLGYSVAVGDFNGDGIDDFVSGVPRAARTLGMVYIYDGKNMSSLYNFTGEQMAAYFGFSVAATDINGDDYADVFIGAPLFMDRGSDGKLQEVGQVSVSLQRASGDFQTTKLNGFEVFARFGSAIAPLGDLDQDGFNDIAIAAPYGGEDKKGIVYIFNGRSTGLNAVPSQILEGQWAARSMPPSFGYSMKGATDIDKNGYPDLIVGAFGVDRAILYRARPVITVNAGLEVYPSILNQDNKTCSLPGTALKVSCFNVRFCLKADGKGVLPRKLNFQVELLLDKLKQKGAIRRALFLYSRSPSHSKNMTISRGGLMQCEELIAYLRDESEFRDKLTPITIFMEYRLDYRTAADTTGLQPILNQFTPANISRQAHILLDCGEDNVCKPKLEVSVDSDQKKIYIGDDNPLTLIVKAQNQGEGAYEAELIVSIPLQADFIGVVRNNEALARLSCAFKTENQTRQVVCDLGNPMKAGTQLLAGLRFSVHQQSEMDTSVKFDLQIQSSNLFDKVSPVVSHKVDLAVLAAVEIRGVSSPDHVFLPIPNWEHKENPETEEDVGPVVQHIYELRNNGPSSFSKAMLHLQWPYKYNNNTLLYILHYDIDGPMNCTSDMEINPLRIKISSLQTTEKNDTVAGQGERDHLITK
αvβ1 integrin (αvβ1 expressing CHO cells), sequence (P06756 891-1048 partner): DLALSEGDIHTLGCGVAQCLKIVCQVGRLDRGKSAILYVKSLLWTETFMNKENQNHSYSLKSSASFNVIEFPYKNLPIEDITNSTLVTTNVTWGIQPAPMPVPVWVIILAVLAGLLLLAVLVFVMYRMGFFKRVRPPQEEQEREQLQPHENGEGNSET
αvβ1 integrin (αvβ1 expressing CHO cells), sequence (P05556 21-798): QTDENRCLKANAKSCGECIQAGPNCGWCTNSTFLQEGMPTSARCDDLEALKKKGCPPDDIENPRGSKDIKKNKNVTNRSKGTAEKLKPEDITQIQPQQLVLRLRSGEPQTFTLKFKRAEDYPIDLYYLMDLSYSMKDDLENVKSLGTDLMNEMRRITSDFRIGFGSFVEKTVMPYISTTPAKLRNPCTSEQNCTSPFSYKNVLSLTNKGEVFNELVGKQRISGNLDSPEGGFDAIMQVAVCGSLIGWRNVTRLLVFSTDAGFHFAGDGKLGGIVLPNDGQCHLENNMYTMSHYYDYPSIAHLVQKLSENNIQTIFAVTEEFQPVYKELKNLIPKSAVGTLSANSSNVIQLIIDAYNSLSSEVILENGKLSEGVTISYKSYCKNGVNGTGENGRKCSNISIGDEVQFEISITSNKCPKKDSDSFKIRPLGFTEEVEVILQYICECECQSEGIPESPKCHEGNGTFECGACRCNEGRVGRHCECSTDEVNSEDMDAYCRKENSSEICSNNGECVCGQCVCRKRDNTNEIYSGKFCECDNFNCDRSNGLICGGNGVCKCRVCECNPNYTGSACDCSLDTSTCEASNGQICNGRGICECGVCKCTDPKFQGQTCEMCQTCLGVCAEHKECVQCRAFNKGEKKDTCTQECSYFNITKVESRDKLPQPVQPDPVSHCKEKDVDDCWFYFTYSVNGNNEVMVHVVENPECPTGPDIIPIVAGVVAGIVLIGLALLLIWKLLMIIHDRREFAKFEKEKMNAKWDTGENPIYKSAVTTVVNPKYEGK

This test concerns the target αvβ1 integrin (αvβ1 expressing CHO cells) (Homo sapiens (Human), UniProt P05556+P06756). Description: Cell adhesion assay: inhibition of αvβ1 expressing CHO cells attaching to TGFβ1LAP. As to conditions: 1 h at 37° C., crystal violet absorbance 595 nm, read-out: αvβ1 Inhibition IC50 (nM)-range. Format: cell-based. As to the method:
Example B1—Cell Adhesion Assay
In order to determine the potency, the compounds were assessed for their ability to inhibit αvβ1 expressing CHO cells attach to TGFβ1LAP. Microplates were coated overnight with 2 ug/ml TGFβ1LAP at 4° C., and blocked with 2% BSA/PBS for 30 min before the assay. Cells were detached and washed in PBS. After that the cells were resuspended in DMEM at 1.0×10^6 cells/ml, fifty microliter of cell suspension and fifty microliter of compound solution were added into the plate. The plates were incubated for one hour at 37° C. in humidified 5% carbon dioxide. Non-adherent cells were removed by centrifugation top side down at 58 g for 5 min. The attached cells were fixed and stained with 0.5% crystal violet (in 20% methanol and 1% formaldehyde) and the wells washed with PBS. Crystal violet was dissolved in 2% Triton-X in PBS. The relative number of cells in each well was evaluated by the absorbance at 595 nm in a microplate reader (Tecan). IC50 values were determined by non-linear regression with four parameters (Graphpad Prism 7.01, Y=Bottom+(Top−Bottom)/(1+10^((Log IC50−X)*HillSlope)).
The compounds tested were compound samples prepared according to procedures described in the Synthetic Examples section, with the stereochemical purity as indicated in the Examples indicated for Example or Compound No. 1-62. The compounds tested were predominantly S-configuration at the alpha carbon of the amino acid scaffold, except for compounds 123, 124, and 125 which were predominantly R-configuration at the alpha carbon of the amino acid scaffold. “Example or Compound No.” in Table B-1 refers to the compound illustrated in the examples for Example or Compound Nos. 1-62 (the compounds of Examples 1-62 are labeled as Compounds 1-62 in Table 1). “Example or Compound No.” in Table B-1 refers to the compound number as indicated in Table 1 or Table 2 for Example or Compound Nos. 63-126.
Usually IC50 stands for the midpoint of a concentration-inhibition curve. In the case of `O=C(N[C@@H](Cc1ccc(OCCCc2ccc3c(n2)NCCC3)cc1)C(=O)O)c1c(Cl)cncc1Cl` [Example 15, (S)-2-(3,5-dichloroisonicotinamido)-3-(4-(3-(5,6,7,8-tetrahydro-1,8-naphthyridin-2-yl)propoxy)phenyl)propanoic acid], the IC50 was less than 50 nM. `O=C(N[C@@H](Cc1ccc(OCCCc2ccc3c(n2)NCCC3)cc1)C(=O)O)c1c(Cl)cccc1Cl` [Example 16, (S)-2-(2,6-dichlorobenzamido)-3-(4-(3-(5,6,7,8-tetrahydro-1,8-naphthyridin-2-yl)propoxy)phenyl)propanoic acid]: the IC50 was less than 50 nM. Take `CN1CCN=C(NCCCCOc2ccc(C[C@H](NC(=O)c3c(Cl)cccc3Cl)C(=O)O)cc2)C1=O` [Example 17, (S)-2-(2,6-dichlorobenzamido)-3-(4-(4-((4-methyl-3-oxo-3,4,5,6-tetrahydropyrazin-2-yl)amino)butoxy)phenyl)propanoic acid]: the IC50 is more than 1000 nM.

In the case of `O=C(NC(Cc1ccc(OCCCC2Cc3cccnc3N2)cc1)C(=O)O)c1c(Cl)cccc1Cl` (stereo not shown) [Example 18, 2-(2,6-dichlorobenzamido)-3-(4-(3-(2,3-dihydro-1H-pyrrolo[2,3-b]pyridin-2-yl)propoxy)phenyl)propanoic acid], the IC50 was less than 50 nM. As to `O=C(N[C@@H](CCCCCCCc1ccc2c(n1)NCCC2)C(=O)O)c1c(Cl)cccc1Cl` [Example 19, (S)-2-(2,6-dichlorobenzamido)-9-(5,6,7,8-tetrahydro-1,8-naphthyridin-2-yl)nonanoic acid], the IC50 is less than 50 nM. Under `O=C(N[C@@H](C/C=C/CCCCc1ccc2c(n1)NCCC2)C(=O)O)c1c(Cl)cccc1Cl` [Example 20, (S,E)-2-(2,6-dichlorobenzamido)-9-(5,6,7,8-tetrahydro-1,8-naphthyridin-2-yl)non-4-enoic acid] stands less than 50 nM. As to `O=C(N[C@@H](Cc1ccc(N2CC(Cc3ccc4c(n3)NCCC4)C2)cc1)C(=O)O)c1c(Cl)cccc1Cl` [Example 21, (S)-2-(2,6-dichlorobenzamido)-3-(4-(3-((5,6,7,8-tetrahydro-1,8-naphthyridin-2-yl)methyl)azetidin-1-yl)phenyl)propanoic acid], the IC50 was more than 1000 nM. Consider `O=C(N[C@@H](Cc1ccc(N2CC(c3ccc4c(n3)NCCC4)C2)cc1)C(=O)O)c1c(Cl)cccc1Cl` [Example 22, (S)-2-(2,6-dichlorobenzamido)-3-(4-(3-(5,6,7,8-tetrahydro-1,8-naphthyridin-2-yl)azetidin-1-yl)phenyl)propanoic acid], for which the IC50 was less than 50 nM. In the case of `O=C(NC(Cc1ccc(OCC2CC(Nc3ccccn3)C2)cc1)C(=O)O)c1c(Cl)cccc1Cl` [Example 23, (S)-2-(2,6-dichlorobenzamido)-3-(4-(((1s,3R)-3-(pyridin-2-ylamino)cyclobutyl)methoxy)phenyl)propanoic acid], the IC50 is less than 50 nM.

For `O=C(NC(Cc1ccc(OCC2CCC(Nc3ccccn3)CC2)cc1)C(=O)O)c1c(Cl)cccc1Cl` [Example 25, (S)-2-(2,6-dichlorobenzamido)-3-(4-(((1s,4R)-4-(pyridin-2-ylamino)cyclohexyl)methoxy)phenyl)propanoic acid], the IC50 fell in the range of 50 to 250 nM. Under `CC(C)(CCNc1ccccn1)Nc1ccc(C[C@H](NC(=O)c2c(Cl)cccc2Cl)C(=O)O)cc1` [Example 26, (S)-2-(2,6-dichlorobenzamido)-3-(4-((2-methyl-4-(pyridin-2-ylamino)butan-2-yl)amino)phenyl)propanoic acid] stands more than 1000 nM; under `O=C(N[C@@H](Cc1ccc(OCCCC2CCc3cccnc3N2)cc1)C(=O)O)c1c(Cl)cccc1Cl` (stereo partly drawn) [Example 27, (2S)-2-(2,6-dichlorobenzamido)-3-(4-(3-(1,2,3,4-tetrahydro-1,8-naphthyridin-2-yl)propoxy)phenyl)propanoic acid], less than 50 nM. On to `O=C(N[C@@H](Cc1ccc(COCCc2ccc3c(n2)NCCC3)cc1)C(=O)O)c1c(Cl)cccc1Cl` [Example 29, (S)-2-(2,6-dichlorobenzamido)-3-(4-((2-(5,6,7,8-tetrahydro-1,8-naphthyridin-2-yl)ethoxy)methyl)phenyl)propanoic acid trifluoroacetate], for which the IC50 was less than 50 nM.

As to `O=C(N[C@@H](Cc1ccc(COCCCNc2ccccn2)cc1)C(=O)O)c1c(Cl)cccc1Cl` [Example 30, (S)-2-(2,6-dichlorobenzamido)-3-(4-((3-(pyridin-2-ylamino)propoxy)methyl)phenyl) propanoic acid trifluoroacetate], the IC50 is 250 to 1000 nM. Take `O=C(NC(Cc1ccc(COC2CCC(Nc3ccccn3)CC2)cc1)C(=O)O)c1c(Cl)cccc1Cl` [Example 31, (S)-2-(2,6-dichlorobenzamido)-3-(4-((((1s,4R)-4-(pyridin-2-ylamino)cyclohexyl)oxy)methyl)phenyl)propanoic acid trifluoroacetate]: the IC50 fell in the range of 50 to 250 nM. For the compound `O=C(NC(Cc1ccc(COC2CC(Nc3ccccn3)C2)cc1)C(=O)O)c1c(Cl)cccc1Cl` [Example 32, (S)-2-(2,6-dichlorobenzamido)-3-(4-(((1s,3R)-3-(pyridin-2-ylamino)cyclobutoxy)methyl)phenyl)propanoic acid trifluoroacetate], the IC50 fell in the range of 50 to 250 nM.

For `CC(OCCc1ccc2c(n1)NCCC2)c1ccc(C[C@H](NC(=O)c2c(Cl)cccc2Cl)C(=O)O)cc1` (stereo partly drawn) [Example 33, (2S)-2-(2,6-dichlorobenzamido)-3-(4-(1-(2-(5,6,7,8-tetrahydro-1,8-naphthyridin-2-yl)ethoxy)ethyl)phenyl)propanoic acid], the IC50 was less than 50 nM. Take `O=C(N[C@@H](Cc1ccc(OCCCc2ccc3c(n2)NCCC3)cc1)C(=O)O)c1ccc(C2CC2)cc1` [Example 34, (2S)-2-[(4-cyclopropylbenzoyl)amino]-3-[4-[3-(5,6,7,8-tetrahydro-1,8-naphthyridin-2-yl)propoxy]phenyl]propanoic acid]: the IC50 is less than 50 nM.

For the compound `O=C(N[C@@H](Cc1ccc(OCCCc2ccc3c(n2)NCCC3)cc1)C(=O)O)c1cc(Cl)cc(Cl)c1` [Example 35, (2S)-2-[(3,5-dichlorobenzoyl)amino]-3-[4-[3-(5,6,7,8-tetrahydro-1,8-naphthyridin-2-yl)propoxy]phenyl]propanoic acid], the IC50 was less than 50 nM.

`O=C(N[C@@H](Cc1ccc(OCCCc2ccc3c(n2)NCCC3)cc1)C(=O)O)c1cc(F)ccc1Cl` [Example 36, (2S)-2-[(2-chloro-5-fluoro-benzoyl)amino]-3-[4-[3-(5,6,7,8-tetrahydro-1,8-naphthyridin-2-yl)propoxy]phenyl]propanoic acid]: the IC50 is less than 50 nM. Regarding `O=C(N[C@@H](Cc1cccc(OCCCc2ccc3c(n2)NCCC3)c1)C(=O)O)c1c(Cl)cccc1Cl` [Example 37, (2S)-2-((2,6-dichlorobenzoyl)amino)-3-(3-(3-(5,6,7,8-tetrahydro-1,8-naphthyridin-2-yl)propoxy)phenyl)propanoic acid], the IC50 fell in the range of 250 to 1000 nM. For `O=C(NC(Cc1ccc(O[C@H]2CC[C@@H](Nc3ccccn3)CC2)cc1)C(=O)O)c1c(Cl)cccc1Cl` (stereo partly drawn) [Example 38, (2S)-2-[(2,6-dichlorobenzoyl)amino]-3-[4-[4-cis-(2-pyridylamino)cyclohexoxy]phenyl]propanoic acid], the IC50 is less than 50 nM.
